# Measured values: US20110117055A1, “Methods of Treating Hepatitis C Virus with Oxoacetamide Compounds” (priority 2009, published 2011)
# “Also recorded” adds a separate entry of the source. Like-named read-outs stand apart in the source and are kept apart here.
# Experiments:
# Jc1-luc virus = assay: Luciferase compound activity assay, Jc1-luc virus in Huh7.5.1 cells; format: cell-based, HCV genotype-2a
# Experimental: Cell culture. Human hepatoma Huh-7.5.1 cells or Huh7 cells were grown at 37° C. and 5% CO2 in Dulbecco's modification of Eagle's medium supplemented with 2 mM L-glutamine, 1 mM Sodium pyruvate, 1× Non-essential amino acids mix, 100 units/ml penicillin, 100 μg/ml streptomycin, and 10% fetal bovine serum.
# Virus plasmids. The chimeric full-length construct pFL-JC1, a GT2a/2a chimera consisting of structural genes from the J6CF isolate and non-structural genes from the JFH1 isolate, has been described previously. See Backes et al., J. Virol. 2010, 84:5775-89; Schaller et al., J. Virol., 2007, 81:4591-603; Koutsoudakis et al., J. Virol. 2006, 80:5308-20; Pietschmann et al., Proc. Natl. Acad. Sci., 2006, 103:7408-13. The firefly luciferase gene has been inserted to pFL-Jc1 to develop a plamid pFL-Jc1-luc for use as a reporter of viral replication. See Amako et al., J. Virol. 2009, 83:9237-46. Specifically, the pFL-JC1-luc construct can be utilized to develop an infectious HCV cell culture system to test novel HCV inhibitors, including entry inhibitors, in vitro using luciferase expression.
# Preparation of infectious HCV. Jc1-luc or HCV2a/2aChRluc RNA was in vitro transcribed using T7 RiboMAX™ Express Large Scale RNA Production System (Promega). After RNA clean up (Qiagen RNeasy Mini kit), transfection was performed as previously described.
# 400 microliters of a Huh-7.5.1 or Huh7 cell suspension (10^7 cells/ml) was placed in a 0.4-cm cuvette with 10 μg of Jc1-luc or HCV2a/2aChRluc RNA and electroporated (Bio-Rad Gene Pulser System) using a single square wave at 260 V and 25 ms pulse length. The cells were plated in 15-cm tissue culture dishes (Corning) and supernatant was harvested and concentrated using a centrifugal filter (Amicon 100K, Millipore).
# Luciferase compound activity assay. Cell culture and luciferase compound assays were performed as previously described. See Wyles et al., J. Virol. 2007, 81:3005-8; Wyles et al., Antimicrob Agents Chemother. 2009, 53:2660-2; Grünberger et al., J. Infect. Dis. 2008, 197:42-5; Wyles et al., Antimicrob Agents Chemother, 2008, 52:1862-4. Briefly, Huh7.5.1 cells were seeded into 96-well plates at a density of 10,000 cells per well in 100 μl medium. After incubating overnight for attachment, Jc1-luc virus at an MOI 0.01 was added to wells with or without compounds at the specified concentrations. All conditions were run in triplicate. After 24 hours, medium was aspirated and replaced with 100 μl of complete medium containing an identical concentration of compound(s) followed by additional 48 hour incubation. The luciferase assay (Bright-Glo; Promega) was carried out according to the manufacturer's instructions. Luciferase activity was determined using a microplate luminometer (Veritas microplate luminometer; Turner Biosystems). […]
# [1] = Cytotoxicity of anti-HCV compounds (CC50, Table 4); conditions: human, Huh7.5.1 cells
# HCV2aChLuc virus = assay: In vitro HCVcc entry assay: HCV2aChLuc virus infection of Huh7 cells, Renilla luciferase read-out; format: cell-based, HCV genotype 2a; conditions: for IC50: Hepatitis C virus
# [2] = test system: HCV genotype 1b subgenomic replicon; assay: HCV replicon assay (HCV1b replicon cells, NS5A ELISA); format: cell-based; conditions: 3 days
# Experimental: Alternatively, Hut1b cells (Huh7 cells stably replicating HCV genotype 1b subgenomic replicon) were treated with serial dilutions of the test compound for 72 hours. Replication efficiency was monitored by ELISA assay using anti-HCV NS5A monoclonal antibody (Virogen).
# Increasing amounts of compound were inoculated onto HCV1b replicon cells and incubated for 3 days. Following incubation, HCV replication was monitored with NS5A protein expression by ELISA.
# [3] = test system: Bovine viral diarrhea virus (BVDV); assay: BVDV plaque-forming assay in MDBK cells; format: cell-based; conditions: even at 1 μM
# Experimental: Bovine viral diarrhea virus (BVDV) is a closely related virus to HCV, belonging to the same Family, Flaviviridae. To validate the specificity of antiviral activity, BVDV infection was done with MDBK cells in the presence of compounds provided herein. MDBK cells (70 to 80% confluent) were infected with a diluted virus. Following 1 h of adsorption at 37° C., cells were washed once with DMEM, overlaid with 1.5% low-melting-point (LMP) agarose (Gibco-BRL) in MEM containing 5% HS, and incubated at 37° C. To assay for plaque-forming virus, after 3 days monolayers were fixed with 3.7% formaldehyde for 2 h at room temperature, the agarose plugs were removed, and the monolayers were stained with crystal violet.
# HCV1a/2a chimeric virus = assay: HCV entry assay with HCV1a/2a chimeric virus; format: cell-based, HCV genotype 1a
# Description: Since HCV genotype 1 is the most prevalent genotype among the variants of HCV, we constructed an HCV1a/2a chimeric infectious clone with two cell-culture adaptive mutations introduced. Sequences for the structural proteins (including C, E1, and E2), p7, and NS2 were derived from HCV genotype 1a H77 strain. The rest of nonstructural proteins (NS3 to NS5B) and 3′ NTR were derived from HCV genotype 2a JFH strain. 5′NTR was originated from HCV2aJ6 (FIG. 7). […] Therefore, both HCV1a/2aCh virus and HCV1a/2aChLuc virus with Y361H and Q1251L mutations were successively produced in Huh7 cells and used for HCV entry assay.
# HCV [4] = assay: Combination of viral entry inhibitor with IFN-α, HCVcc infection system, luciferase assay; format: cell-based; conditions: Huh7 cells, 72 hrs
# Experimental: The current standard of care for the treatment of chronic hepatitis C is the combination of pegylated IFN-α (interferon-alpha) and ribavirin. […] Huh7 cells were incubated with various concentrations of Compound 1 or interferon alone, or combinations of both for 72 hrs, and the anti-HCV activity was measured by luciferase assays. The same was experiment was performed for Compound 5.
# [5] = test system: HCV1a chimeric virus and 2a chimeric virus; assay: Combination of viral entry inhibitor with ribavirin; format: cell-based, HCV; conditions: ribavirin 15 μM
# Experimental: Varying amounts of each compound were coincubated with a high concentration of ribavirin (15 μM).
# HCV [6] = assay: Combination of viral entry inhibitor with HCV protease inhibitor VX-950; format: cell-based; conditions: fixed ratio based on EC50
# Experimental: Additional combination studies of Compound 1 and Compound 5 with the HCV NS3 protease inhibitor VX-950 were conducted. Compound 1 and Compound 5 were tested singly and in combination with VX-950. The ratio of the two compounds, based on the compound's EC50, remained fixed across the dosing range. The potential cytotoxicity of individual compounds was assessed with a luminescent ATP-based cell viability assay (Cell Titer-Glo; Promega). Cell culture and luciferase compound assays were performed as previously described in Example 3.
# Compound interactions were quantified by the approach described by Chou and Talalay, relying on the median effect principle and the multiple-drug effect equation. […] Isobolograms were generated for each combination tested and were used to determine the additivity, synergism or antagonism of inhibitor combinations. Combination indices (CI) were determined with Calcusyn (Biosoft) for each experiment at the EC50, EC75, and EC90 of the combination. By convention, a CI of <0.9 was considered synergistic, a CI of ≧0.9 or ≦1.1 was considered additive, and a CI of >1.1 was deemed antagonistic. […] Combination indices (CI) were determined with Calcusyn (Biosoft) for each experiment at the EC50, EC75, and EC90 of the combination. By convention, a CI of <0.9 was considered synergistic, a CI of ≧0.9 or ≦1.1 was considered additive, and a CI of >1.1 was deemed antagonistic.
# HCV2aChLuc (NS3:A156S) = assay: Infectivity of protease mutant virus versus wild type in the presence of compounds; format: cell-based, HCV genotype 2a; conditions: HCV2aChLuc (NS3:A156S) vs wild type HCV2aChLuc
# Description: Therefore, we introduced A156S mutation in the backbone of HCV2aChLuc genome and investigated the infectivity of the mutant virus in the presence of compounds.
# [7] = test system: HCV2aCh (E2:G451R) mutant virus; assay: E2:G451R mutant virus infectivity, luciferase assay; format: cell-based, HCV genotype 2a; conditions: E2:G451R vs parental
# Description: Since SR-B1 is also known to be one of the essential cellular receptors required for HCV entry, we were interested to know if Compounds 1 and 5 inhibits HCV entry via SR-B1. HCV E2 protein interaction with SR-B1 is believed to occur via hypervariable region 1 located within the N-terminal region of the E2 glycoprotein. Zhong and colleagues reported that a glycine-to-arginine mutation at position 451 (G451R) in E2 promoted JFH-1 infectivity (J. Viol. 2006, 80:11082). […] We introduced the E2:G451R mutation into the backbone of HCV2aCh (FIG. 13a) to test whether this mutation may alter the inhibitory effect of Compounds 1 and 5 on HCV entry mediated by SR-B1.
# HCV2a/2aChRluc virus = assay: Compound 5 with ribavirin or VX950 in the HCV2a/2aChRluc system; format: cell-based, HCV genotype 2a; conditions: ribavirin alone, 15 μM
# Experimental: 100 μl of serially diluted compound solutions (100, 30, 10, 3, 1, 0.3, and 0.1 nM) was inoculated onto Huh-7 cells in a 96-well plate. Subsequently, 100 ul (TCID50, ˜0.6) of HCV2a/2aChRluc virus was added onto the cells. After co-incubation for 72 hrs, Renilla luciferase expression was determined (Renilla Luciferase Assay, Promega) and reported as relative light units (RLU).
# Data analysis. Determinations of compound interactions were quantified based on the median-effect principle described by Chou and Talalay. Chou T., Talalay P., Adv. Enzyme. Regul., 1984, 22:27-55. Combination indices (CIs) were determined using Calcusyn (Biosoft) for each experiment at the EC50, EC75, and EC90 levels. Five replicates per condition were evaluated. A CI<0.9 was considered synergistic, a CI≧0.9 and ≦[…] was considered additive, and a CI>1.1 was deemed antagonistic.
# [8] = Huh-7, read-out: Activity class (IC50), tested according to the method of Example 3
compound,measurement,setting,value
"C[C@@]1(O)[C@H](O)[C@@H](CO)O[C@H]1n1cnc2c(N)ncnc21 [2′-C-methyladenosine, reference compound]",EC50,"Jc1-luc virus; Hepatitis C virus, Huh-7.5.1",252 ± 33.5 nM
same,CC50,[1],> 100000 nM
"COc1ccc2c(O[C@@H]3C[C@H]4C(=O)N[C@]5(C(=O)O)C[C@H]5/C=C\CCCCC[C@H](NC(=O)OC5CCCC5)C(=O)N4C3)cc(-c3csc(NC(C)C)n3)nc2c1 [BILN2061, reference compound]",EC50,"Jc1-luc virus; Hepatitis C virus, Huh-7.5.1",492 ± 56.7 nM
same,CC50,[1],35000 nM
"COc1ccc(C(C)(C)C)cc1NC(=O)C(=O)c1ccc(OCCN2CCOCC2)c2ccccc12 [Compound 1, N-(5-tert-butyl-2-methoxyphenyl)-2-(4-(2-morpholinoethoxy)naphthalen-1-yl)-2-oxoacetamide]",IC50,"HCV2aChLuc virus; Huh-7, 72 h, read-out: observed IC50, Huh7 cells co-incubated with HCV2aChRluc virus and compound for 3 days, repeated assays (n>30)",0.2 to 2 nM
same,IC50,HCV2aChLuc virus; [8],< 5 nM
same,inhibitory effect on HCV2aChLuc viral entry,"HCV2aChLuc virus; Huh7 cells, 3 days",dose-dependent inhibitory effect; also recorded: dose-dependent inhibition
same,effect on HCV replication (NS5A protein expression by ELISA),[2],did not measurably inhibit; also recorded: no measurable effect
same,inhibitory effect on BVDV infection,[3],no measurable inhibitory effect
same,inhibition of HCV1a chimeric virus,HCV1a/2a chimeric virus; compared with HCV2a chimeric virus,inhibited
same,effect of combination with IFN-α on inhibition of HCV infection in cell culture,HCV [4],additive to moderate synergistic effect
same,effect of combination with ribavirin,[5],no antagonistic effect
same,effect of combination with VX-950,HCV [6],additive to slightly synergistic effects
same,resistance of NS3:A156S mutant virus versus wild type (inhibition of infectivity),HCV2aChLuc (NS3:A156S),no significant difference
same,"sensitivity of E2 mutant virus relative to parental virus, luciferase assay for viral infectivity",[7],greater resistance
COc1c(NC(=O)C(=O)c2ccc(Br)c3ccccc23)cc(C(C)(C)C)cc1C(=O)NC1CC1 [Compound 135],IC50,HCV2aChLuc virus; [8],< 5 nM
CNc1ccc(-c2ccc(C(=O)C(=O)Nc3cc(C(C)(C)C)ccc3OC)c3ccccc23)cn1 [Compound 136],IC50,HCV2aChLuc virus; [8],< 5 nM
CNc1ccc(-c2ccc(C(=O)C(=O)Nc3cc(C(C)(C)C)cc(C(N)=O)c3OC)c3ccccc23)cn1 [Compound 137],IC50,HCV2aChLuc virus; [8],< 5 nM
CCNC(=O)c1cc(C(C)(C)C)cc(NC(=O)C(=O)c2ccc(-c3ccc(NC)nc3)c3ccccc23)c1OC [Compound 138],IC50,HCV2aChLuc virus; [8],< 5 nM
"CCC[C@H](NC(=O)[C@@H]1[C@H]2CCC[C@H]2CN1C(=O)[C@@H](NC(=O)[C@@H](NC(=O)c1cnccn1)C1CCCCC1)C(C)(C)C)C(=O)C(=O)NC1CC1 [VX-950, reference compound]",resistance of NS3:A156S mutant virus versus wild type (inhibition of infectivity),HCV2aChLuc (NS3:A156S),high level resistance; also recorded: resistant
same,resistance of NS3:A156S mutant virus versus wild type (inhibition of infectivity),HCV2aChLuc (NS3:A156S); listed as VX950,highly resistant
"NC(=O)c1ncn([C@@H]2O[C@H](CO)[C@@H](O)[C@H]2O)n1 [ribavirin, reference compound]",inhibitory effect on infectivity of 2a chimeric virus,"HCV2aChLuc virus; ribavirin alone, 15 μM",did not have significant inhibitory effect
same,inhibitory effect on infectivity of HCV1a chimeric virus,"HCV1a/2a chimeric virus; ribavirin alone, 15 μM",did not have significant inhibitory effect
same,inhibitory effect on the infectivity of 2a chimeric virus,HCV2a/2aChRluc virus,did not have significant inhibitory effect
IFN-α,effect on HCV replication (NS5A protein expression by ELISA),[2],dose dependent inhibition
same,"sensitivity of E2 mutant virus relative to parental virus, luciferase assay for viral infectivity",[7],very identical patterns
same,EC50,"Jc1-luc virus; Jc1-luc, ± standard error of the mean",3.01 ± 0.39 IU/ml
same,CC50,Huh7.5.1 cells,>100 IU/ml
